Assay [1] deals with T1, SIK3 (Homo sapiens, UniProt Q9Y2K2).
T1 construct: purchased SignalChem S12-11G-100
As to the kind of experiment: biochemical. Particulars: ADP-Glo SIK kinase assay. As to the method:
(§1) The ADP-Glo™ kinase assay is a luminescent technology assay which measures the ADP formed from a kinase reaction. […] In a second step the kinase reactions are terminated and all the remaining ATP is depleted. In a final step the ADP is converted into ATP and this newly synthesized ATP is measured by using a luciferase/luciferin reaction. The generated light is measured using an Envision plate reader, wherein the luminescent signal obtained positively correlates with the kinase activity.
(§2) 1% DMSO and 10 μM staurosporine final concentrations are used as negative and positive controls.
(§3) 2 μL enzyme-substrate mixture is added to the assay plates.
(§4) The reaction is started by adding 2 μL diluted ATP on the assay plates. Plates are centrifuged for a few seconds at 1000 rpm and gently shaken for 2 min followed by an incubation at RT for 120 min.
(§5) The reactions are stopped and the unconsumed ATP is depleted by adding 5 μL ADP-Glo Reagent (Promega, Cat #V912B) to the reaction. The plates are centrifuged for a few seconds at 1000 rpm and incubated at RT for 40 min (ATP depletion).
(§6) The ADP is converted to ATP and luciferase and luciferin is introduced to detect ATP by adding 10 μL Kinase Detection Reagent (Promega, Cat #V913B+V914B) to the reaction. The plates are centrifuged for a few seconds at 1000 rpm and incubated at RT for 30 min (ADP detection).
(§7) Luminescence is measured on an Envision plate reader (PerkinElmer Inc.).
(ADP-Glo turns the ADP formed in a reaction into a luminescent signal.)

The target of assay [2] is T2, SIK1 (Homo sapiens, UniProt P57059).
T2 construct: purchased Carna Biosciences 02-131
T2 sequence (P57059 whole entry): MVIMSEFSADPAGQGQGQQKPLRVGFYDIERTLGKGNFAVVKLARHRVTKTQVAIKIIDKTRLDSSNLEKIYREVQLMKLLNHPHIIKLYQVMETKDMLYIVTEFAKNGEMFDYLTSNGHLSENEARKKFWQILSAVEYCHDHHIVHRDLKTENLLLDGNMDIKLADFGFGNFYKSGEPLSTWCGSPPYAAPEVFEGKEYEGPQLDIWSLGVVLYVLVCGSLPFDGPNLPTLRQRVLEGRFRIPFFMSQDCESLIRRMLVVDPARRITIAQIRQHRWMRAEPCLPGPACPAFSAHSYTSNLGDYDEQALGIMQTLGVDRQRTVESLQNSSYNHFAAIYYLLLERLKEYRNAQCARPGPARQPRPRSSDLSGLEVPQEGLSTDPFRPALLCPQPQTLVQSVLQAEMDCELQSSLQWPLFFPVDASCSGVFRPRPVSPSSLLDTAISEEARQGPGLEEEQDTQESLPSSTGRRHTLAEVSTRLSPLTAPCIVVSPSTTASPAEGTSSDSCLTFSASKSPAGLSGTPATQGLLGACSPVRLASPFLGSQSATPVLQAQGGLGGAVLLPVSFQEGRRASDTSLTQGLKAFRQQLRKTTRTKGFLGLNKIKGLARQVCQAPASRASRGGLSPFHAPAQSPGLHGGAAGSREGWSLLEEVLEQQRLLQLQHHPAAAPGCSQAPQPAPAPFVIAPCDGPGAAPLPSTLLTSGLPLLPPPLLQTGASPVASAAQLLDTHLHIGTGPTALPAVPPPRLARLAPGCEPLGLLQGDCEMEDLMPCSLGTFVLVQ
In words: biochemical. Conditions: ADP-Glo SIK kinase assay. The protocol: as §1, §2, §3, §4, §5, §6, §7

For assay [3], the target named is T3, SIK2 (Homo sapiens, UniProt Q9H0K1).
T3 construct: purchased ThermoFisher Scientific PV4792
T3 sequence (Q9H0K1 whole entry): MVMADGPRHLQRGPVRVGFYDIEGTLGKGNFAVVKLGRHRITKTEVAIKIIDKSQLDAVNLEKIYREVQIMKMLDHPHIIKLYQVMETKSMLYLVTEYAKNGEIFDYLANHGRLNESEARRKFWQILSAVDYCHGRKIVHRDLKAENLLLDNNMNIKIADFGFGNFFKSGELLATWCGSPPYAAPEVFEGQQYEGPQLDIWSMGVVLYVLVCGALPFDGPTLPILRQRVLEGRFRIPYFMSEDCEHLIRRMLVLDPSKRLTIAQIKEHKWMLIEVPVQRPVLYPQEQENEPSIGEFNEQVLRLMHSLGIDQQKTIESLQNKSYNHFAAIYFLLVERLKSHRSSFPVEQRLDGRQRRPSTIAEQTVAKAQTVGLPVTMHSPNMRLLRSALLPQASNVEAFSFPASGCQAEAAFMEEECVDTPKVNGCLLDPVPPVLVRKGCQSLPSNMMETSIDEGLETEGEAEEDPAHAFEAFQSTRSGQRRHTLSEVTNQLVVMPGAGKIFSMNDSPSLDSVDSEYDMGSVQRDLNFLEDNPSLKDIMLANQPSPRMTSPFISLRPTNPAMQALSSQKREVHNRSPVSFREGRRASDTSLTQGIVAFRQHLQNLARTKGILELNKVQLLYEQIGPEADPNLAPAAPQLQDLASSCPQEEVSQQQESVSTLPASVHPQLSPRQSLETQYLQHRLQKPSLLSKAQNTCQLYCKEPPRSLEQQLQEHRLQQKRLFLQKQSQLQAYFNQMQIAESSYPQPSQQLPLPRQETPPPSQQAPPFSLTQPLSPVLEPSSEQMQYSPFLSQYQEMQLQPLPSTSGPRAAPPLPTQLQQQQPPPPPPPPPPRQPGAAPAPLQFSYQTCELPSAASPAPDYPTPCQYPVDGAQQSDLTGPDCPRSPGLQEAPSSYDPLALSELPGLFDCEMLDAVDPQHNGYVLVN
In words: biochemical. Particulars: ADP-Glo SIK kinase assay. The protocol: as §1, §2, §3, §4, §5, §6, §7

Assay [4] has as its target T1, SIK3. As to the kind of experiment: biochemical. Summed up:
(§8)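 AMARA peptide phosphorylation by SIK1–3 is quantified through ^33P uptake from a labeled/unlabeled ATP blend. Staurosporine at 10 μM final defines full inhibition, 1% DMSO the uninhibited signal. Quench uses phosphoric acid; counting follows filter capture.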

In assay [5] the target is T2, SIK1. As to the kind of experiment: biochemical. Particulars: 33P radioactive SIK kinase assay, AMARA peptide, 10 μM ATP; read-out: SIK1 IC50. Summed up:
as §8

The target in assay [6] is T3, SIK2. In words: biochemical. Conditions: 33P radioactive SIK kinase assay, AMARA peptide, 10 μM ATP. The procedure, abridged:
as §8

In assay [7] the test system is LPS-induced TNFα secretion in monocyte-derived macrophages (MdM). In words: MdM assay: LPS-triggered TNFα (ELISA). In kind it is cell-based, human. Conditions: Homo sapiens, Macrophage, LPS-triggered TNFα inhibition. Summed up: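 Human CD14+ monocytes isolated from buffy-coat PBMCs by magnetic beads, differentiated to macrophages; on day 10 compound preincubated 1 h at 37 °C, then LPS 200 ng/mL added (0.2% DMSO). Supernatant taken after 20 h; TNFα quantified by sandwich ELISA against standard curve.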

For assay [8], the system named is LPS triggered IL-10 secretion in monocyte-derived macrophages (MdM). In words: MdM assay: LPS-triggered IL-10 (ELISA). In kind it is cell-based, human. Particulars: maximal fold change vs LPS only, median across assays. The procedure, abridged: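 CD14+ monocytes isolated from human buffy-coat PBMCs and differentiated to macrophages for 10 days. Cells pre-treated with compound 1 h at 37° C (0.2% DMSO), then stimulated with 200 ng/mL LPS; IL-10 in supernatant at 2 h measured by ELISA (A450). Maximal fold change versus LPS only reported as median of two or more runs.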
(In general: An ELISA detects its analyte on a solid surface through an enzyme-linked reagent.)

Where two headings read alike, the source gives them in different places.

T1 sequence (Q9Y2K2 whole entry): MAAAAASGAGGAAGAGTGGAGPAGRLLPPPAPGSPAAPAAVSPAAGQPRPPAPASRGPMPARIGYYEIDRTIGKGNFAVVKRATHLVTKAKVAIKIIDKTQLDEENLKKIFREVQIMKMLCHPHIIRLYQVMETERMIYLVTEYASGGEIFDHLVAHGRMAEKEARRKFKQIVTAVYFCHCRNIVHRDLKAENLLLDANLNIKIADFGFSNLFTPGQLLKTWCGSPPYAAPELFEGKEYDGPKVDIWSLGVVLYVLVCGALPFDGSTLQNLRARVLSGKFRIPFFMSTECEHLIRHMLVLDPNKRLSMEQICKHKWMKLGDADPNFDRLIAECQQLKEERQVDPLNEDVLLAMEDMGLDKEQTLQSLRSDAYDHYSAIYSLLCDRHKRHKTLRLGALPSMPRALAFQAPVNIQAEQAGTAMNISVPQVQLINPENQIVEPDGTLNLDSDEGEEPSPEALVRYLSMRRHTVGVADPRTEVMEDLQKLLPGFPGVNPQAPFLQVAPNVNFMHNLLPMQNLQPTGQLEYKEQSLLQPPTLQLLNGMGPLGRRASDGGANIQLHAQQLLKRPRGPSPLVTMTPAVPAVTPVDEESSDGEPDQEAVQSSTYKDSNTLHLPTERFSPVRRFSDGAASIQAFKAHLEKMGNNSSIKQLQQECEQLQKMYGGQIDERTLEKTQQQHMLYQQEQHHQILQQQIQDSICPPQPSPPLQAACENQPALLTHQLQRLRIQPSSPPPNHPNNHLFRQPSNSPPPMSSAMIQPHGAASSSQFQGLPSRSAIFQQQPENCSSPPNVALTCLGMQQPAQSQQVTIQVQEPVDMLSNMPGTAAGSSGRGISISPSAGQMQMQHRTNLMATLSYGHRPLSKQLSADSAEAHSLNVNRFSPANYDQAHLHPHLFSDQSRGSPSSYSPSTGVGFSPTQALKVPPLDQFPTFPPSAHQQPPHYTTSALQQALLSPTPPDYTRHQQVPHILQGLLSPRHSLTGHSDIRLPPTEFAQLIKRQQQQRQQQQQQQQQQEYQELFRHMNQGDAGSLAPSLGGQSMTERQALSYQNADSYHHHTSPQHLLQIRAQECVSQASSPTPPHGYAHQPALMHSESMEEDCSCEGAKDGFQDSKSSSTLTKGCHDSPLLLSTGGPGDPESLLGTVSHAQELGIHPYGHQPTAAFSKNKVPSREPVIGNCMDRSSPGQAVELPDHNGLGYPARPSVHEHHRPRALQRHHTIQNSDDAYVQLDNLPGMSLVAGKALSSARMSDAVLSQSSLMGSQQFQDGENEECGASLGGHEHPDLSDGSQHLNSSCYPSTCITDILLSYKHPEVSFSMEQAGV

The IC50 is the concentration at which inhibition is half-maximal. With `CCN1Cc2cc(-n3cnc4cc(-c5cnn(C)c5)ccc43)cc(F)c2C1=O` [Cpd 175, 2-ethyl-7-fluoro-5-[5-(1-methylpyrazol-4-yl)benzimidazol-1-yl]isoindolin-1-one], the IC50 in assay [1] was 100 to 500 nM; in assay [2], greater than 500 nM; in assay [3], 100 to 500 nM; in assay [4] it was 100 to 500 nM; in assay [5] it was greater than 500 nM; in assay [6] it was 100 to 500 nM.

On to `CCN1Cc2cc(-n3cnc4cc(-c5cnn(C)c5)ccc43)cc(NCCO)c2C1=O` [Cpd 202, 2-ethyl-7-(2-hydroxyethylamino)-5-[5-(1-methylpyrazol-4-yl)benzimidazol-1-yl]isoindolin-1-one], for which the IC50 in assay [1] was 100 to 500 nM; in assay [2] it was 100 to 500 nM; in assay [3], 100 to 500 nM; in assay [4] it was greater than 500 nM; in assay [5], 100 to 500 nM; in assay [6], 100 to 500 nM.

Regarding `[2H]C([2H])([2H])Oc1cc(-c2cnc3cc(-c4cnn(C)c4)ccn23)cc(OC([2H])([2H])[2H])c1C(=O)NCC(F)(F)F` [Cpd 266, 4-[7-(1-methylpyrazol-4-yl)imidazo[1,2-a]pyridin-3-yl]-2,6-bis(trideuterio-methoxy)-N-(2,2,2-trifluoroethyl)benzamide], the IC50 in assay [1], in assay [2] and in assay [3] was 0.01 to 10 nM in each case.

For `CCOC(=O)Cn1cc(-c2ccn3c(-c4cc(OC)c(C(=O)NC5CC5)c(OC(F)F)c4)cnc3c2)cn1` [Cpd 284, ethyl 2-[4-[3-[4-(cyclopropyl-carbamoyl)-3-(difluoromethoxy)-5-methoxy-phenyl]imidazo[1,2-a]pyridin-7-yl]pyrazol-1-yl]acetate], the half-inhibitory concentration (IC50) in assay [1], in assay [2] and in assay [3] was 0.01 to 10 nM throughout.

On to `COc1cc(-c2cnc3cc(-c4cnn(C)c4)c(OCc4ccccc4)cn23)cc(OC(F)F)c1C(=O)NC1CC1` [Cpd 300, 4-[6-benzyloxy-7-(1-methylpyrazol-4-yl)imidazo[1,2-a]pyridin-3-yl]-N-cyclopropyl-2-(difluoromethoxy)-6-methoxy-benzamide], for which the IC50 was 10 to 100 nM in assay [1], 10 to 100 nM in assay [2] and 0.01 to 10 nM in assay [3].

In the case of `COc1cc(-c2cnc3cc(-c4cnn(C)c4)c(OC(C)C#N)cn23)cc(OC(F)F)c1C(=O)NC1CC1` (centres unmarked) [Cpd 301, 4-[6-(1-cyanoethoxy)-7-(1-methylpyrazol-4-yl)imidazo[1,2-a]pyridin-3-yl]-N-cyclopropyl-2-(difluoromethoxy)-6-methoxy-benzamide], the half-maximal inhibitory concentration (IC50) in assay [1], in assay [2] and in assay [3] was 0.01 to 10 nM in each case.

`CCOC(=O)C(C)Oc1cn2c(-c3cc(OC)c(C(=O)NC4CC4)c(OC(F)F)c3)cnc2cc1-c1cnn(C)c1` (centres unmarked) [Cpd 302, ethyl 2-[3-[4-(cyclopropyl-carbamoyl)-3-(difluoromethoxy)-5-methoxy-phenyl]-7-(1-methylpyrazol-4-yl)imidazo[1,2-a]pyridin-6-yl]oxypropanoate]: the 50% inhibitory concentration (IC50) in assay [1], in assay [2] and in assay [3] was 10 to 100 nM throughout.

Turning to `COc1cc(-c2cnc3cc(-c4cnn(C)c4)c(OC(C)C(=O)O)cn23)cc(OC(F)F)c1C(=O)NC1CC1` (centres unmarked) [Cpd 303, 2-[3-[4-(cyclopropyl-carbamoyl)-3-(difluoromethoxy)-5-methoxy-phenyl]-7-(1-methylpyrazol-4-yl)imidazo[1,2-a]pyridin-6-yl]oxypropanoic acid], the IC50 in assay [1], in assay [2] and in assay [3] was 10 to 100 nM each time.

Regarding `COc1cc(-c2cnc3cc(-c4cnn(C(C)(C)C(=O)O)c4)ccn23)cc(OC)c1C(=O)NCC(F)(F)F` [Cpd 304, 2-[4-[3-[3,5-dimethoxy-4-(2,2,2-trifluoroethyl-carbamoyl)phenyl]imidazo[1,2-a]pyridin-7-yl]pyrazol-1-yl]-2-methyl-propanoic acid], the half-maximal inhibitory concentration (IC50) lay within 0.01 to 10 nM in assay [1], 0.01 to 10 nM in assay [2] and 10 to 100 nM in assay [3].

The EC50 is the concentration that produces a half-maximal response. High values mean a need for much substance, low ones an effect from little substance. In assay [7], `CCOC(=O)CCCn1cc(-c2ccn3c(-c4cc(OC)c(C(=O)NCC(F)(F)F)c(OC)c4)cnc3c2)cn1` [compound 257, ethyl 4-[4-[3-[3,5-dimethoxy-4-(2,2,2-trifluoroethyl-carbamoyl)phenyl]imidazo[1,2-a]pyridin-7-yl]pyrazol-1-yl]butanoate] showed an EC50 of 0.1 to 100 nM. Further, in assay [8], the “IL-10 FCmax median” value is reported as “+ (≤1.5)”. In addition, the IC50 in assay [4], in assay [5] and in assay [6] was 0.01 to 10 nM each time.

With `COc1cc(-c2cnc3cc(-c4cccnc4C#N)ccn23)cc(OC)c1C(=O)NCC(F)(F)F` [compound 268, 4-[7-(2-cyano-3-pyridyl)imidazo[1,2-a]pyridin-3-yl]-2,6-dimethoxy-N-(2,2,2-trifluoroethyl)benzamide], the half-maximal inhibitory concentration (IC50) in assay [1] was 10 to 100 nM; in assay [2], greater than 500 nM; in assay [3], 100 to 500 nM.

Consider `COc1cc(-c2cnc3cc(-c4ccc(C)nn4)ccn23)cc(OC)c1C(=O)NCC(F)(F)F` [compound 269, 2,6-dimethoxy-4-[7-(6-methylpyridazin-3-yl)imidazo[1,2-a]pyridin-3-yl]-N-(2,2,2-trifluoroethyl)benzamide], for which the concentration for half-maximal inhibition (IC50) in assay [1] lay in the range of 0.01 to 10 nM; in assay [2] it was 10 to 100 nM; in assay [3], 0.01 to 10 nM.

With `Cn1cc(-c2ccn3c(-c4cc(F)c(C(=O)NCC(F)(F)F)c(F)c4)cnc3c2)cn1` [compound 271, 2,6-difluoro-4-[7-(1-methylpyrazol-4-yl)imidazo[1,2-a]pyridin-3-yl]-N-(2,2,2-trifluoroethyl)benzamide], the half-maximal inhibitory concentration (IC50) in assay [1] lay in the range of 10 to 100 nM; in assay [2], 100 to 500 nM; in assay [3] it was 0.01 to 10 nM.

For `COc1cc(-c2cnc3cc(-c4cnn(C)c4)ccn23)cc(NC(C)C)c1C(=O)NC1CC1` [compound 277, N-cyclopropyl-2-(isopropylamino)-6-methoxy-4-[7-(1-methylpyrazol-4-yl)imidazo[1,2-a]pyridin-3-yl]benzamide], the 50% inhibitory concentration (IC50) in assay [1], in assay [2] and in assay [3] was 0.01 to 10 nM each time.

With `COc1cc(-c2cnc3cc(-c4ccc(C(F)(F)F)nn4)ccn23)cc(OC(F)F)c1C(=O)NC1CC1` [compound 281, N-cyclopropyl-2-(difluoromethoxy)-6-methoxy-4-[7-[6-(trifluoromethyl)pyridazin-3-yl]imidazo[1,2-a]pyridin-3-yl]benzamide], the IC50 in assay [1] fell in the range of 0.01 to 10 nM; in assay [2], 10 to 100 nM; in assay [3] it was 0.01 to 10 nM.

Turning to `COc1cc(-c2cnc3cc(-c4ccc(C#N)nn4)ccn23)cc(OC(F)F)c1C(=O)NC1CC1` [compound 282, 4-[7-(6-cyanopyridazin-3-yl)imidazo[1,2-a]pyridin-3-yl]-N-cyclopropyl-2-(difluoromethoxy)-6-methoxy-benzamide], the IC50 in assay [1], in assay [2] and in assay [3] was 0.01 to 10 nM each time.

As for `COc1cc(-c2cnc3cc(-c4ccc(N(C)C)nn4)ccn23)cc(OC(F)F)c1C(=O)NC1CC1` [compound 283, N-cyclopropyl-2-(difluoromethoxy)-4-[7-[6-(dimethylamino)pyridazin-3-yl]imidazo[1,2-a]pyridin-3-yl]-6-methoxy-benzamide], the IC50 in assay [1], in assay [2] and in assay [3] was 0.01 to 10 nM in each case.

Turning to `COc1cc(-c2cnc3cc(-c4ccc(N5CCOCC5)nn4)ccn23)cc(OC(F)F)c1C(=O)NC1CC1` [compound 286, N-cyclopropyl-2-(difluoromethoxy)-6-methoxy-4-[7-(6-morpholino-pyridazin-3-yl)imidazo[1,2-a]pyridin-3-yl]benzamide], the 50% inhibitory concentration (IC50) in assay [1], in assay [2] and in assay [3] was 0.01 to 10 nM in each case.
